Test results as given in patent US9186358B2, “Combination therapy for treating or preventing an inflammatory skin disorder” (GALDERMA LABORATORIES, L.P., priority 2009, dated 2015).

Experiments:
[1] = tested on: AA-induced ear edema; experiment: Arachidonic acid (AA)-induced acute ear edema in mice; assay type: in vivo, mice (BALB/c ByJ Rj); design: Edema Mean: unit not given here; conditions: for reduced AA-induced ear edema in mice by up to: single topical application, highest over 1, 2 and 4 h; for Edema Mean / Inhibition vs AA %: topical with AA 4%
Experimental: Positive control compound, indomethacin (CD0016), was dissolved in the AA solution at 5% by weight. […] Different compounds at different dosages were tested on 10 groups of animals, each group having 5 mice (see Table 4). […] After the last measurement, the animals were sacrificed by carbon dioxide following a preapproved protocol. The mean of the ear thickness measured from 5 animals in each of the 10 groups was calculated. The anti-inflammatory activity of a test compound was measured by its ability to reduce AA-induced ear edema, i.e., as the percentage of reduction in ear thickness of animals treated with the test compound and AA as compared with that treated with AA alone.

[2] = tested on: TPA-induced ear edema; experiment: TPA-induced ear edema in mice; assay type: in vivo, mice (BALB/c ByJ Rj); design: Ear Edema Mean: unit not given beside the values; conditions: single topical application with TPA 0.01%, 6 h
Experimental: The edema inducer, TPA, was dissolved in ethanol at 0.01% by weight to obtain a TPA solution (“TPA solution”). […] Positive control compound, betametasone valerate (CD0153), was dissolved in the TPA solution at 0.01% by weight. […] Different compounds at different dosages were tested on 10 groups of animals, each group having 5 mice (see Table 2). [table] The ear thickness of each of the 50 animals was measured at 6 hours after the compound application. After the measurement, the animals were sacrificed by carbon dioxide following a preapproved protocol. The mean of the ear thickness measured from 5 animals in each of the 10 groups was calculated. The anti-inflammatory activity of a test compound was measured by its ability to reduce TPA-induced ear edema, i.e., as the percentage of reduction in ear thickness of animals treated with both the test compound and TPA as compared with that treated with TPA alone.

[3] = CD07805 at 0.2%, 1 h Measurement
[4] = CD07805 at 0.2%, 2 h Measurement
[5] = CD07805 at 0.2%, 4 h Measurement
[6] = CD08100/02 at 0.1%, 1 h Measurement
[7] = CD08100/02 at 0.1%, 2 h Measurement
[8] = CD08100/02 at 0.1%, 4 h Measurement
[9] = CD08100/02 at 0.3%, 1 h Measurement
[10] = CD08100/02 at 0.3%, 2 h Measurement
[11] = CD08100/02 at 0.3%, 4 h Measurement
[12] = CD08100/02 at 1%, 1 h Measurement

## COc1ccc2c(c1)c(CC(=O)O)c(C)n2C(=O)c1ccc(Cl)cc1 [CD0016, indomethacin]
[1]; CD0016 at 5%
  reduced AA-induced ear edema in mice by up to: up to 94.2%
[1]; CD0016 at 5%, 1 h Measurement
  Edema Mean: 0.8
  Inhibition vs AA %: 93.1%
[1]; CD0016 at 5%, 2 h Measurement
  Edema Mean: 0.6
  Inhibition vs AA %: 94.2%
[1]; CD0016 at 5%, 4 h Measurement
  Edema Mean: 0.4
  Inhibition vs AA %: 93.5%

## CCCCC(=O)O[C@]1(C(=O)CO)[C@@H](C)C[C@H]2[C@@H]3CCC4=CC(=O)C=C[C@]4(C)[C@@]3(F)[C@@H](O)C[C@@]21C [CD0153, betametasone valerate]
[2]; CD0153 at 0.01%
  Ear Edema Mean: 0.40
  Inhibition vs TPA (%): 97.5%

## Brc1c(NC2=NCCN2)ccc2nccnc12 [CD07805, (5-bromo-quinoxalin-6-yl)-(4,5-dihydro-1H-imidazol-2-yl)-amine]
[1]; CD07805 at 0.2%
  reduced AA-induced ear edema in mice by up to: up to 80.8%
[1]; [3]
  Edema Mean: 2.8
  Inhibition vs AA %: 75.9%
[1]; [4]
  Edema Mean: 2
  Inhibition vs AA %: 80.8%
[1]; [5]
  Edema Mean: 1.6
  Inhibition vs AA %: 74.2%
[2]; CD07805 at 0.2%
  Ear Edema Mean: 8.60
  Inhibition vs TPA (%): 46.3%

## O=C(O)Cc1ccccc1Nc1c(Cl)cccc1Cl [CD08100/02, 2-[2-(2,6-dichlorophenylamino)phenyl]acetic acid]
[1]; CD08100/02 at 0.1%
  reduced AA-induced ear edema in mice by up to: up to 71.2%
[1]; [6]
  Edema Mean: 4.2
  Inhibition vs AA %: 63.8%
[1]; [7]
  Edema Mean: 3
  Inhibition vs AA %: 71.2%
[1]; [8]
  Edema Mean: 2
  Inhibition vs AA %: 67.7%
[1]; CD08100/02 at 0.3%
  reduced AA-induced ear edema in mice by up to: ≤ 80.6%
[1]; [9]
  Edema Mean: 3.6
  Inhibition vs AA %: 69.0%
[1]; [10]
  Edema Mean: 2.2
  Inhibition vs AA %: 78.8%
[1]; [11]
  Edema Mean: 1.2
  Inhibition vs AA %: 80.6%
[1]; CD08100/02 at 1%
  reduced AA-induced ear edema in mice by up to: ≤ 83.9%
[1]; [12]
  Edema Mean: 2
  Inhibition vs AA %: 82.8%
[1]; CD08100/02 at 1%, 2 h Measurement
  Edema Mean: 1
[1]; CD08100/02 at 1%, 4 h Measurement
  Edema Mean: 1
[2]; CD08100/02 at 0.1%
  Ear Edema Mean: 5.80
  Inhibition vs TPA (%): 63.8%
[2]; CD08100/02 at 0.3%
  Ear Edema Mean: 6.40
  Inhibition vs TPA (%): 60.0%
[2]; CD08100/02 at 1%
  Ear Edema Mean: 4.80
  Inhibition vs TPA (%): 70.0%
